Literature values in publication PMC9800952 (Asian Journal of Pharmaceutical Sciences, 2022).

Conditions: pH 7

LogD (pH7): 4.28
SMILES: CC(C)OC(=O)CCC/C=C\C[C@@H]1[C@@H](CC[C@@H](O)CCc2ccccc2)[C@H](O)C[C@@H]1O [latanoprost]
